Experimental data: patent publication US20050101595A1, “N-containing cycloalkyl-substituted amino-thiazole derivatives and pharmaceutical compositions for inhibiting cell proliferation and methods for their use” (PFIZER INC., priority 2003, published 2005)
Structures can show the parent of a compound that is named as a salt. Where two headings read alike, the source gives them in different places.

What was measured:
[1] = molecular target: human CDK4 and genetically truncated (1-264) cyclin D3 (Homo sapiens, UniProt P11802); assay: Inhibition of CDK4/Cyclin D Retinoblastoma Kinase Activity; format: biochemical; details: apparent Ki, CDK4/truncated cyclin D3, Rb fragment substrate, 25 μM ATP
Chain of human CDK4 and genetically truncated (1-264) cyclin D3 (P11802 whole entry, the tested form may be a part): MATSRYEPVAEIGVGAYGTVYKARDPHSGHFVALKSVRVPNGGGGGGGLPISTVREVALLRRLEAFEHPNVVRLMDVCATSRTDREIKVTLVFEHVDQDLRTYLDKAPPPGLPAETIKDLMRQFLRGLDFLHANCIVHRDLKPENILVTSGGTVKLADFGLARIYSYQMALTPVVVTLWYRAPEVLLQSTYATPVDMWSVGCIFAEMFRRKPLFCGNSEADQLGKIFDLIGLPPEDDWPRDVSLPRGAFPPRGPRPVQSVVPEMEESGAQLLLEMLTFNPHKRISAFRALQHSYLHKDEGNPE
Chain of human CDK4 and genetically truncated (1-264) cyclin D3 (P30281 1-264 partner): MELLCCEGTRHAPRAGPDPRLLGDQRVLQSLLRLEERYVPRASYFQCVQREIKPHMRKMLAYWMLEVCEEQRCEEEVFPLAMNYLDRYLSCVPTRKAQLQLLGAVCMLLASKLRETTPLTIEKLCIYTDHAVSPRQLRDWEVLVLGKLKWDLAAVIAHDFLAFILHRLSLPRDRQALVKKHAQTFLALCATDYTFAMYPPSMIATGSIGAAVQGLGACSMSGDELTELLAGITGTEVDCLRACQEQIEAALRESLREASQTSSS
Procedure, shortened: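 The enzyme complex (5 nM), expressed in co-infected insect cells, was incubated with recombinant Rb fragment, 25 μM radiolabelled ATP and 2% DMSO at 30 °C. Reactions were stopped with EDTA after 20 minutes, or 60 minutes for tight-binding inhibitors. Apparent Ki values came from competitive inhibition fits.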

[2] = tested on: HCT-116 cell line; assay: Inhibition of cell growth, tetrazolium salt (MTT) assay; format: cell-based; details: Homo sapiens, HCT-116, 120 h, MTT, three to five days, read-out: HCT-116 IC50
Procedure, shortened: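 Growth inhibition by MTT reduction at 540 nm (0.2 mg/mL, 4 h at 37° C, formazan dissolved in DMSO), normalized to cells given only 0.5% v/v DMSO. HCT-116 cultures in McCoy's 5A were dosed 4 h post-plating and kept three to five days at 37° C, 5% CO2.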

[3] = molecular target: CDK2/Cyclin A (Homo sapiens, UniProt P24941); assay: Inhibition of CDK2/Cyclin A Retinoblastoma Kinase Activity; format: biochemical; details: apparent Ki, CDK2/proteolyzed cyclin A, Rb fragment substrate, 25 μM ATP
Procedure, shortened: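 CDK2 (10 or 19 nM), insect-cell expressed, gel-filtration purified with truncated cyclin A; Rb fragment substrate; 25 μM ATP; 10 mM HEPES pH 7.4, 10 mM MgCl2; 30° C, 60 or 75 min; EDTA stop; phosphocellulose/nitrocellulose capture, phosphorimager. % inhibition vs DMSO control, no-enzyme background subtracted.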

Row | Ki [1] [nM] | IC50 ([2]; first HCT-116 column (c4)) [nM] | IC50 ([2]; second HCT-116 column (c5)) [nM] | Ki [3] [nM] | SMILES
1 | 0.52 | 93 | 1500 | 1.5 | Nc1nc(NC2CCN(S(=O)(=O)c3cnc(OCCN4CCCCC4)nc3)CC2)sc1C(=O)c1c(F)cccc1F [Example H23, (4-Amino-2-{1-[2-(2-piperidin-1-yl-ethoxy)-pyrimidine-5-sulfonyl]-piperidin-4-ylamino}-thiazol-5-yl)-(2,6-difluoro-phenyl)-methanone Trifluoroacetic Acid Salt]
2 | 0.41 | 140 | 2000 | 1.8 | CN(C)CCOc1ncc(S(=O)(=O)N2CCC(Nc3nc(N)c(C(=O)c4c(F)cccc4F)s3)CC2)cn1 [Example H24, (4-Amino-2-{1-[2-(2-dimethylamino-ethoxy)-pyrimidine-5-sulfonyl]-piperidin-4-ylamino}-thiazol-5-yl)-(2,6-difluoro-phenyl)-methanone Trifluoroacetic Acid Salt]
3 | 83 | > 5000 | > 5000 | 20 | CN(C)CCOc1nc(S(=O)(=O)N2CCC(Nc3nc(N)c(C(=O)c4c(F)cccc4F)s3)CC2)cn1C [Example H25, (4-Amino-2-{1-[2-(2-dimethylamino-ethoxy)-1-methyl-1H-imidazole-4-sulfonyl]-piperidin-4-ylamino}-thiazol-5-yl)-(2,6-difluoro-phenyl)-methanone Hydrochloride Salt]
4 | 1.3 | 22 | 80 | 0.37 | CN1CCC[C@@H](Oc2ccc(S(=O)(=O)N3CCC(Nc4nc(N)c(C(=O)c5c(F)cccc5F)s4)CC3)cn2)C1 [Example H26, (4-Amino-2-{1-[6-(1-methyl-piperidin-3R-yloxy)-pyridine-3-sulfonyl]-piperidin-4-ylamino}-thiazol-5-yl)-(2,6-difluoro-phenyl)-methanone Hydrochloride]
5 | 0.97 | 80 | 290 | 0.35 | CN1CC[C@@H](Oc2ccc(S(=O)(=O)N3CCC(Nc4nc(N)c(C(=O)c5c(F)cccc5F)s4)CC3)cn2)C1 [Example H27, (4-Amino-2-{1-[6-(1-methyl-pyrrolidin-3R-yloxy)-pyridine-3-sulfonyl]-piperidin-4-ylamino}-thiazol-5-yl)-(2,6-difluoro-phenyl)-methanone Hydrochloride]
6 | 1 | 49 | 160 | 0.41 | CN1CC[C@H](Oc2ccc(S(=O)(=O)N3CCC(Nc4nc(N)c(C(=O)c5c(F)cccc5F)s4)CC3)cn2)C1 [Example H28, (4-Amino-2-{1-[6-(1-methyl-pyrrolidin-3S-yloxy)-pyridine-3-sulfonyl]-piperidin-4-ylamino}-thiazol-5-yl)-(2,6-difluoro-phenyl)-methanone Hydrochloride]
7 | 1.3 | 36 | 300 | 0.52 | CN1CCC[C@H](Oc2ccc(S(=O)(=O)N3CCC(Nc4nc(N)c(C(=O)c5c(F)cccc5F)s4)CC3)cn2)C1 [Example H29, (4-Amino-2-{1-[6-(1-methyl-piperidin-3S-yloxy)-pyridine-3-sulfonyl]-piperidin-4-ylamino}-thiazol-5-yl)-(2,6-difluoro-phenyl)-methanone Hydrochloride]

Continued, molecule first:

Row | SMILES | Ki [1] [nM] | IC50 ([2]; first HCT-116 column (c4)) [nM] | IC50 ([2]; second HCT-116 column (c5)) [nM] | Ki [3] [nM]
8 | CN1CCC(Oc2ccc(S(=O)(=O)N3CCC(Nc4nc(N)c(C(=O)c5c(F)cccc5F)s4)CC3)cn2)CC1 [Example H14, 1-(4-Amino-2-{1-[6-(1-methyl-piperidin-4-yloxy)-pyridine-3-sulfonyl]-piperidin-4-ylamino}-thiazol-5-yl)-1-(2,6-difluoro-phenyl)-methanone Hydrochloride] | 0.34 | 40 | 400 | 0.74
9 | CN(C)CCCOc1ccc(S(=O)(=O)N2CCC(Nc3nc(N)c(C(=O)c4c(F)cccc4F)s3)CC2)cn1 [Example H15, 1-(4-Amino-2-{1-[6-(3-dimethylamino-propoxy)-pyridine-3-sulfonyl]-piperidin-4-ylamino}-thiazol-5-yl)-1-(2,6-difluoro-phenyl)-methanone Hydrochloride] | 0.34 | 71 | 500 | 0.64
10 | CN1CCCC(Oc2ccc(S(=O)(=O)N3CCC(Nc4nc(N)c(C(=O)c5c(F)cccc5F)s4)CC3)cn2)C1 (stereo not shown) [Example H16, 1-(4-Amino-2-{1-[6-(1-methyl-piperidin-3RS-yloxy)-pyridin-3-sulfonyl]-piperidin-4-ylamino}-thiazol-5-yl)-1-(2,6-difluoro-phenyl)-methanone Hydrochloride] | 0.28 | 57 | 500 | 0.48
11 | CN(C)CCOc1ccc(S(=O)(=O)N2CCC(Nc3nc(N)c(C(=O)c4c(Cl)cccc4Cl)s3)CC2)cn1 [Example H17, 1-(4-Amino-2-{1-[6-(2-dimethylamino-ethoxy)-pyridine-3-sulfonyl]-piperidin-4-ylamino}-thiazol-5-yl)-1-(2,6-dichloro-phenyl)-methanone Hydrochloride Salt] | 1.7 | 50 | 170 | 1.8
12 | CCN(CC)CCOc1ccc(S(=O)(=O)N2CCC(Nc3nc(N)c(C(=O)c4c(F)cccc4F)s3)CC2)cn1 [Example H18, (4-Amino-2-{1-[6-(2-diethylamino-ethoxy)-pyridine-3-sulfonyl]-piperidin-4-ylamino}-thiazol-5-yl)-(2,6-difluoro-phenyl)-methanone Trifluoroacetic Acid Salt] | 0.3 | 55 | > 500 | 1.6
13 | CC(C)NCCOc1ccc(S(=O)(=O)N2CCC(Nc3nc(N)c(C(=O)c4c(F)cccc4F)s3)CC2)cn1 [Example H19, (4-Amino-2-{1-[6-(2-isopropylamino-ethoxy)-pyddine-3-sulfonyl]-piperidin-4-ylamino}-thiazol-5-yl)-(2,6-difluoro-phenyl)-methanone Hydrochloride Salt] | 0.52 | 180 | 2500 | 1.5
14 | CC(C)(C)NCCOc1ccc(S(=O)(=O)N2CCC(Nc3nc(N)c(C(=O)c4c(F)cccc4F)s3)CC2)cn1 [Example H20, (4-Amino-2-{1-[6-(2-tert-butylamino-ethoxy)-pyridine-3-sulfonyl]-piperidin-4-ylamino}-thiazol-5-yl)-(2,6-difluoro-phenyl)-methanone Hydrochloride Salt] | 0.51 | 380 | 3000 | 1.5
15 | Nc1nc(NC2CCN(S(=O)(=O)c3ccc(OCCNC4CC4)nc3)CC2)sc1C(=O)c1c(F)cccc1F [Example H21, (4-Amino-2-{1-[6-(2-cyclopropylamino-ethoxy)-3-sulfonyl]-piperidin-4-ylamino}-thiazol-5-yl)-(2,6-difluoro-phenyl)-methanone Hydrochloride Salt] | 0.28 | 110 | 1500 | 1.5
16 | Nc1nc(NC2CCN(S(=O)(=O)c3cnc(OCCN4CCOCC4)nc3)CC2)sc1C(=O)c1c(F)cccc1F [Example H22, (4-Amino-2-{1-[2-(2-morpholin4-yl-ethoxy)-pyrimidine-5-sulfonyl]-piperidin-4-ylamino}-thiazol-5-yl)-(2,6-difluoro-phenyl)-methanone Trifluoroacetic Acid Salt] | 1.1 | 120 | 300 | 1.2
